Source: US20210261618A1 (TAIAN CITY QIHANG BIOTECHNOLOGY CO., priority 2018, published 2021)
Where two headings read alike, the source gives them in different places. Where no end group is shown, it is not given here.

Legend:
[1] = Kunming mice
Description: (§1) 20 Kunming mice, healthy adults, half male and half male, weight 20 g±2%
(§2) 4) Route of administration: tail vein injection;
(§3) 5) Administration method: animal acute toxicity test with a single dose was to study the toxic reaction of the animal within a certain period of time after the animal was given the test substance once or multiple times within 24 h. In this experiment, 3 doses within 24 h were used, namely 0.5 mL/each, 3 times/day, with an interval of 3 h;
(§4) 6) Observing and recording the reaction symptoms of the test animals for 14 consecutive days with twice a day on the day of administration and the next day, and then once a day;
(§5) 7) At the end of the experiment, the animals were killed by cervical dislocation. All the test animals were dissected to observe whether their tissues and organs were changed in volume, color, texture, etc. and recorded;

in vivo = settings: both, Kunming, mouse, iv, 2000 mg/kgBW
Description: as §1, §2, §3, §4, §5

[2] = tested on: transplanted tumor cells of human osteosarcoma MG63; settings: xenograft tumor after 4 weeks of administration; taxol group, each dose group of sp2
Description: 2. AnnexinV-FITC cell apoptosis (annexinV)
2) 50,000-100,000 resuspended cells was taken, and centrifuged at 1000 g for 5 min. The supernatant was discarded, and 195 μl of AnnexinV-FITC binding solution was added to gently resuspend the cells.
6) Immediately flow cytometry detection was performed, wherein AnnexinV-FITC was green fluorescence, and PI was red fluorescence.

[3] = 1 d after 2000 mg/kgBW tail vein
[4] = 3 d after 2000 mg/kgBW tail vein
[5] = 5 d after 2000 mg/kgBW tail vein
[6] = 7 d after 2000 mg/kgBW tail vein
[7] = 9 d after 2000 mg/kgBW tail vein
[8] = 11 d after 2000 mg/kgBW tail vein
[9] = 13 d after 2000 mg/kgBW tail vein

## RVLNGPEEEAAAPAE [sp2]
[1]; [3]
  animal weight, female (group value): 26.458
  animal weight, male (group value): 27.565
[1]; [4]
  animal weight, female (group value): 28.245
  animal weight, male (group value): 31.131
[1]; [5]
  animal weight, female (group value): 29.135
  animal weight, male (group value): 33.177
[1]; [6]
  animal weight, female (group value): 30.603
  animal weight, male (group value): 35.699
[1]; [7]
  animal weight, female (group value): 31.884
  animal weight, male (group value): 37.611
[1]; [8]
  animal weight, female (group value): 33.355
  animal weight, male (group value): 38.017
[1]; [9]
  animal weight, female (group value): 33.25
  animal weight, male (group value): 38.456
[1]; tail vein, observed 14 days
  maximum non-toxic dose administered intravenously: 2000 mg/kgBW
In vivo
  NOAEL at 336 h: 2000 mg/kg

## CC(=O)O[C@H]1C(=O)[C@@]2(C)[C@H]([C@H](OC(=O)c3ccccc3)[C@]3(O)C[C@H](OC(=O)[C@H](O)[C@@H](NC(=O)c4ccccc4)c4ccccc4)C(C)=C1C3(C)C)[C@]1(OC(C)=O)CO[C@@H]1C[C@@H]2O [taxol]
[2]
  tumor cell apoptosis compared to the model group: increase the tumor cell apoptosis rate (P<0.05)
